The numbers were not newly measured in US20140348811A1, “COMPOSITIONS COMPRISING SUGAR-CYSTEINE PRODUCTS” (MAX INTERNATIONAL, LLC, priority 2011, published 2014), which cites them from elsewhere.

For data set [1] the following is noted: administered directly to humans, wide dosage ranges.
The subject of the next data set is ATP levels. The conditions noted are these: dogs subjected to ischemia, about 3 g/day for at least 5 days.
The conditions of data set [2]: healthy humans, orally 8-10 g per day.
Data set [3] has as its system acetaminophen hepatic and renal toxicity. Particulars: mice, 2 g/kg.
Data set [4] deals with irradiation-induced bowel injury. Particulars: mice, 1 g/kg.
Data set [5] has as its system mice exposed to cyclophosphamide. Particulars: 8 mmol/kg.
A further data set relates to glutathione levels. Particulars: mice, 8 mmol/kg i.p.

Regarding `O=C[C@H](O)[C@H](O)[C@H](O)CO` [ribose], the toxicity entry in data set [1] is “essentially non-toxic”. The ATP levels result in the data set with ATP levels is “effectively restored and maintained ATP levels”. For the same molecule, in data set [2], the exercise capacity result is recorded as “increase exercise capacity”.

For the molecule `O=C(O)[C@@H]1CSC(C(O)C(O)C(O)CO)N1` (stereo partly drawn) [RibCys, 2(R,S)-D-ribo-(1′,2′,3′,4′-tetrahydroxybutyl)thiazolidine-4(R)-carboxylic acid], the “protection against acetaminophen hepatic and renal toxicity” value in data set [3] is “protect mice against acetaminophen hepatic and renal toxicity”. For the same molecule, the “protection against irradiation-induced bowel injury” value in data set [4] is on record as “protect mice against irradiation-induced bowel injury”. The “delivery of protective amounts of cysteine” value in data set [5] is on record as “deliver effective protective amounts of cysteine”. Also, the “increased glutathione levels, heart” value in the data set on glutathione levels (heart) is recorded as 1.5 times. Further, the “increased glutathione levels, muscle tissue” value in the data set on glutathione levels (muscle tissue) is 2.5 times.
